US10232060B2, “CEST systems exhibiting a concentration independent responsiveness” (BRACCO IMAGING S.P.A., priority 2010, dated 2019)

Tests used:
Assay type in all cases: physicochemical
[1] = Z-spectrum / NMR resonances of the exchangeable OH protons of NMR-distinguishable isomers in solution
From the text: (§1) CEST MR contrast enhancement have been determined on images acquired at 7 T on a Bruker Avance 300 spectrometer equipped with a Micro2.5 microimaging probe. A typical RARE spin-echo sequence (rare factor 64) with an echo time of 3.3 ms and a TR value of 5 s were used. An acquisition matrix of 64×64 with a square FOV of 10 mm was used. The whole sequence was preceded by a saturation scheme consisting of a continuous wave pulse 2 s long with a RF intensity of 24, 12, 6 μT. The Z-spectra were successively analyzed in order to determine the ratiometric value by using a software compiled in MATLAB platform operating, broadly, as disclosed in Development and validation of a smoothing-splines-based correction method for improving the analysis of CEST-MR images, Stancanello J Terreno E, Delli Castelli D, Cabella C, Uggeri F 1, Aime S.; CONTRAST MEDIA & MOLECULAR IMAGING Volume: 3, Issue: 4, Pages: 136-149, 2008; and in Methods for an improved detection of the MRI-CEST effect. Terreno E, Stancanello 3, Longo D, Delli Castelli D, Milone L, Sanders H M H F, Kok M B, Uggeri F, Aime S; CONTRAST MEDIA & MOLECULAR IMAGING; Volume: 4; Issue: 5; Pages: 237-247; 2009 that are all herein included by reference. The total paramagnetic concentration of the solution was determined through the measurement of magnetic susceptibility of the solution on a Bruker Avance 600 spectrometer (12T).

[2] = In vitro responsive properties towards temperature (Z-spectra); settings: for resonance frequency of hydroxylic protons, less shifted stereoisomer / resonance frequency of hydroxylic protons, more shifted stereoisomer: 24 mM, pH 7.31
Protocol: A solution of Yb(III)HPDO3A (24 mM) having pH 7.31 was used for test.
The test was performed with a phantom containing solution of YbHPDO3A-tetramer in serum having different concentration, ranging from 0.26 to 8.4 mM., pH 7.4 and 298K. The dependence of the chemical shifts of the OH mobile protons (of the tetrameric complex stereoisomers) on the Temperature was tested by operating as formerly described for the monomeric compound.

[3] = In vitro responsiveness towards pH (CEST MRI of phantom, ratiometric ST); settings: in vitro solutions buffered at different pH
From the text: as §1, with “[…]. […]” for “(12T).”

chemical shift of hydroxyl group, less shifted NMR-distinguishable diastereoisomer ([1]; 20° C.)	chemical shift of hydroxyl group, more shifted NMR-distinguishable diastereoisomer ([1]; 20° C.)	resonance frequency of hydroxylic protons, less shifted stereoisomer ([2]; 20° C.)	resonance frequency of hydroxylic protons, more shifted stereoisomer ([2]; 20° C.)	resonance frequency of hydroxylic protons, less shifted stereoisomer ([2]; 37° C.)	resonance frequency of hydroxylic protons, more shifted stereoisomer ([2]; 37° C.)	responsiveness of the saturation transfer towards pH (in words) [3]	chemical shift of OH proton, first diastereoisomer (from water) ([1]; pH=2 and 37° C.)	chemical shift of OH proton, second diastereoisomer ([1]; pH=2 and 37° C.)	Compound	sensitivity of the OH chemical shift to temperature (in words) [2]
72 ppm	99 ppm	72 ppm	99 ppm	64.3 ppm	88 ppm	is different			CC(O)CN1CCN(CC(=O)[O-])CCN(CC(=O)[O-])CCN(CC(=O)[O-])CC1.[Yb+3] (centres unmarked) [YbHPDO3A]	very sensitive to the temperature
							20.5 ppm	16.7 ppm	CC(O)CN1CCN(CC(=O)[O-])CCN(CC(=O)[O-])CCN(CC(=O)[O-])CC1.[Eu+3] (centres unmarked) [EuHPDO3A]	
									1,23-bis[4,7,10-triacetate[1,4,7,10-tetraazacyclododecan-(1)-yl]]-12,12′-bis[11[4,7,10-triacetate)-[1,4,7,10-tetraazacyclododecan-(1)-yl]]2-aza-3-oxo-5,8-dioxy-10-hydroxyundecanyl]2,22-dihydroxy-4,7,17,20-tetroxy-9,15-dioxo-10,14-diazatricosane tetra Ytterbium Complex (1:4) [YbHPDO3A-tetramer]	greatly increased
